This is an account of results in US20170202840A1, “TREATMENT OF PANCREATIC CANCER WITH LIPOSOMAL IRINOTECAN” (MERRIMACK PHARMACEUTICALS, INC., priority 2016, published 2017).

Where a name gives a salt, the structure may show the parent alone. Read-outs that look alike come from different tables or passages of the source. Bounds are passed on as bounds.

The conditions of data set [1]: in vivo.
Source text: Serum bilirubin within the institutional normal range, albumin≧3 g/dL, and Karnofsky Performance Status (KPS)≧70 were required for study entry.
TEAEs were graded by NCI CTCAE v4.0 and coded by MedDRA v14.1 for the following prespecified subgroups: sex, age (<65 vs ≧65 years), ethnicity (white vs Asian), UGT1A1*28 status, prior conventional irinotecan therapy (yes vs no), and prior 5-FU therapy (yes vs no). All TEAEs were followed until resolution or patient discontinuation. Analyses were performed on the safety population (ie, those who received≧1 dose of study medication).
All TEAEs were followed until resolution or patient discontinuation. The safety analysis population included all patients who received≧1 dose of study drug. The presence of the UGT1A1*28 allele was determined by genotype testing, and homozygous patients were identified (A7/TA7 genotype)
For data set [2] the following is noted: dog, in vivo.
Data set [3] has as its system cytochrome P-450 isozymes. To be noted: in vitro; cited from earlier work.
For data set [4] the following is noted: rats, cited from earlier work.
The conditions of data set [5]: intravenous; cited from earlier work.
The conditions of data set [6]: rat, in vivo; cited from earlier work.
The conditions of data set [7]: mouse; cited from earlier work.
For data set [8] the following is noted: intravenous; cited from earlier work. The source holds these as a separate data set.
For data set [9] the following is noted: human, in vivo; cited from earlier work.
For data set [10] the following is noted: rabbits, 6 mg/kg/day; cited from earlier work.
For data set [11] the following is noted: cited from earlier work.

For the compound “irinotecan sucrose octasulfate salt liposome injection [MM-398]”, the “Incidence of neutropenic sepsis” value in data set [1] is given as 0.8%. Besides, the “Doses with atrophy of male and female reproductive organs” value in data set [2] was at least 13 mg/kg.
As to `CCc1c2c(nc3ccc(O)cc13)-c1cc3c(c(=O)n1C2)COC(=O)[C@]3(O)CC` [SN-38], the “Inhibition of cytochrome P-450 isozymes” value in data set [3] was “do not inhibit cytochrome P-450 isozymes”.
In the case of `CCc1c2c(nc3ccc(OC(=O)N4CCC(N5CCCCC5)CC4)cc13)-c1cc3c(c(=O)n1C2)COC(=O)[C@]3(O)CC` [irinotecan HCl, (5) 4,11-diethyl-3,4,12,14-tetrahydro-4-hydroxy-3,14-dioxo1H-pyrano[3′,4′:6,7]-indolizino[1,2 b]quinolin-9-yl-[1,4′bipiperidine]-1′-carboxylate, monohydrochloride, trihydrate], the “Effects in offspring, dams dosed after organogenesis through weaning” value in [4] (6 mg/kg/day) is “decreased learning ability and decreased female body weights in the offspring”. In addition, the “Doses giving structural abnormalities and growth delays” value in [4] is recorded as “greater than 1.2 mg/kg/day”. In addition, the “Time to appearance of radioactivity in milk” value in [5] was at most 5 min. The Carcinogenicity finding entry in data set [6] was “significant linear trend between irinotecan HCl dosage and the incidence of combined uterine horn endometrial stromal polyps and endometrial stromal sarcomas”. The Clastogenicity in vivo entry in [7] is “clastogenic”. For the same compound, the “Doses without significant adverse effects on fertility and general reproductive performance” value in data set [8] was “up to 6 mg/kg/day”. For the same compound, in data set [9], the “Effect of dexamethasone (moderate CYP3A4 inducer) on pharmacokinetics of irinotecan” value is on record as “does not alter the pharmacokinetics of irinotecan”; the “Exposure to irinotecan and SN-38 with concomitant ketoconazole” value is on record as “increased exposure”; the “Exposure to irinotecan or SN-38 with CYP3A4 enzyme-inducing anticonvulsants or St. John's wort” value is reported as “substantially reduced”; the “Urinary excretion of SN-38” value is listed as below 1%. The “Urinary excretion of SN-38 glucuronide” value in [9] is 3%.
As to `CCc1c2c(nc3ccc(OC(=O)N4CCC(N5CCCCC5)CC4)cc13)-c1cc3c(c(=O)n1C2)COC(=O)[C@]3(O)CC` [irinotecan, (5) 4,11-diethyl-3,4,12,14-tetrahydro-4-hydroxy-3,14-dioxo1H-pyrano[3′,4′: 6,7]-indolizino[1,2b]quinolin-9-yl-[1,4′bipiperidine]-1′-carboxylate], the “Embryo-fetal effects, intravenous during organogenesis” value in data set [4] (6 mg/kg/day) is “increased post-implantation loss and decreased numbers of live fetuses”; in [10] it was “increased post-implantation loss and decreased numbers of live fetuses”. The Placental transfer result in data set [4] (intravenous) was “crosses the placenta”. Further, the “Incidence of grade 4 neutropenia” value is at most 50% in [11] (350 mg/m2 once every-3-weeks, homozygous UGT1A1*28); 12.5% in [11] (heterozygous (UGT1A1 6/7 genotype)); “no grade 4 neutropenia was observed” in data set [11] (homozygous wild-type (UGT1A1 6/6 genotype)). Besides, the “Inhibition of cytochrome P-450 isozymes” value in data set [3] is “do not inhibit cytochrome P-450 isozymes”.
